22 compounds from patent US20240150362A1, “Substituted Pyrrolotriazines” (Molecure S.A., priority 2022, published 2024) can be followed below.

Counter-ions that a name gives are not always drawn. Some results are limits rather than exact numbers.

In this assay the target is T1, full-length USP7 (Homo sapiens, UniProt Q93009).
T1 construct: A 45 μl reaction volume containing full-length USP7 (0.5-1.0 nM)
T1 sequence (Q93009 whole entry): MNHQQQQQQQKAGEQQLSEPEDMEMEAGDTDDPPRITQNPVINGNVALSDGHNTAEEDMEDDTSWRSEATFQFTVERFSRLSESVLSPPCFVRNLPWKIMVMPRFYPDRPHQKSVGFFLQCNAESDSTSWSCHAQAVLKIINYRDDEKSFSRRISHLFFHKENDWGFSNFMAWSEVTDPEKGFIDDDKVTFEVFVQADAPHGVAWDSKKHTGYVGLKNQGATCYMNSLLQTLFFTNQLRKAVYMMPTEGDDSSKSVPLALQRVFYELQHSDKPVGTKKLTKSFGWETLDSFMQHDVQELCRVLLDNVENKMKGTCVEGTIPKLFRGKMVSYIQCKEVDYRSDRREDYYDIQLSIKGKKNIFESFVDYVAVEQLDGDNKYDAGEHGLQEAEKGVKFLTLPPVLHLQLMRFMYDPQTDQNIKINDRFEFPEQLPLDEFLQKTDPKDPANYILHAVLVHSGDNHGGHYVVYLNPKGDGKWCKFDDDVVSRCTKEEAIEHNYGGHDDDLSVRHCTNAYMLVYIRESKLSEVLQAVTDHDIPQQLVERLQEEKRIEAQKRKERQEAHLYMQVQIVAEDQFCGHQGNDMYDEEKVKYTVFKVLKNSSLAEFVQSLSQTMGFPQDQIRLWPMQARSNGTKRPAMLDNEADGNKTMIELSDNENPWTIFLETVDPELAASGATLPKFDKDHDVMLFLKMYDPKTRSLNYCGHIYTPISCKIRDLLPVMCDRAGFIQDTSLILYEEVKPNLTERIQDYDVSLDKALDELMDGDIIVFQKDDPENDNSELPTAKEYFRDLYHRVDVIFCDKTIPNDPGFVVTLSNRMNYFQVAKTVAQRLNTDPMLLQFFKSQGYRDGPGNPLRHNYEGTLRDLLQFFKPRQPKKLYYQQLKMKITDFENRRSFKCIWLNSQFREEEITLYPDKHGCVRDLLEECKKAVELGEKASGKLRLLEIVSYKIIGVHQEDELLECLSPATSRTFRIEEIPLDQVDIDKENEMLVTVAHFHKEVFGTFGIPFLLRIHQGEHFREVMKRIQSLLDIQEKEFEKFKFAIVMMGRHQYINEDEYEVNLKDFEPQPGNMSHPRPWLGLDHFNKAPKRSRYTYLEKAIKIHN
Briefly: Enzymatic assay to determine % inhibition of USP7 activity at 1 μM test compound (Ubiquitin-Rhodamine 110 cleavage). It is filed as biochemical. The conditions noted are these: 1 μM of the test compound; given where IC50 has not been determined yet; mean of two repetitions. Here is the method: Enzymatic Assay to Determine % Value of Inhibition […] Activity at 1 μM […]
A 45 μl reaction volume containing full-length USP7 (0.5-1.0 nM) in 50 mM HEPES pH 7.5, 150 mM NaCl, 2 mM DTT, 1 mg/ml BSA and 0.05% Tween20 (DUB assay buffer) was assembled in wells of 96 well half area black flat bottom plates. All test compounds were first dissolved to 30 mM stocks in DMSO and subsequently introduced to enzyme 15 min after USP7 incubation with DTT at room temperature. The final concentration of tested compounds was 1 μM. The enzymatic reaction was started by adding 0.5 μM Ubiquitin-Rhodamine 110 (final concentration) and allowed to proceed for 30-60 min at 25° C., 250 RPM shaking before Rhodamine fluorescence (485 nm excitation/535 nm emission) was measured using Tecan Spark M10 plate reader. Percentage of inhibition at 1 μM was determined by the mean of two repetitions for these concentrations using Microsoft Excel software.
The term inhibition denotes the relative decrease from the control value, in per cent. Low readings indicate a weak effect, high ones a strong effect. Turning to `Cc1cc(Cl)cc(-c2ncnn3cc(CN4C(=O)C5C(C4=O)C5(C)C)cc23)c1O[C@@H]1CNCC(F)(F)C1` (stereo partly drawn) [Example 28, 3-((4-(5-chloro-2-(((S)-5,5-difluoropiperidin-3-yl)oxy)-3-methylphenyl)pyrrolo[2,1-f][1,2,4]triazin-6-yl)methyl)-6,6-dimethyl-3-azabicyclo[3.1.0]hexane-2,4-dione 2,2,2-trifluoroacetate], the inhibition at 1 µM is less than 20%.
The value for `CC1(C)C2C(=O)N(Cc3cc4c(-c5cc(F)cc6ccn(C[C@@H]7CNCCO7)c56)ncnn4c3)C(=O)C21` (stereo partly drawn) [Example 33, 3-((4-(5-fluoro-1-(((S)-morpholin-2-yl)methyl)-1H-indol-7-yl)pyrrolo[2,1-f][1,2,4]triazin-6-yl)methyl)-6,6-dimethyl-3-azabicyclo[3.1.0]hexane-2,4-dione 2,2,2-trifluoroacetate] was more than 70%; that for `COC(=O)c1cc(-c2ncnn3cc(CN4C(=O)C5C(C4=O)C5(C)C)cc23)c2c(ccn2C[C@@H]2CNCCO2)c1` (stereo partly drawn) [Example 34, methyl 7-(6-((6,6-dimethyl-2,4-dioxo-3-azabicyclo[3.1.0]hexan-3-yl)methyl)pyrrolo[2,1-f][1,2,4]triazin-4-yl)-1-(((S)-morpholin-2-yl)methyl)-1H-indole-5-carboxylate 2,2,2-trifluoroacetate] was less than 20%; that for `CC1(C)NC(=O)N(Cc2cc3c(-c4cc(Cl)cc5ccn(C[C@@H]6CNCCO6)c45)ncnn3c2)C1=O` [Example 36, (S)-3-((4-(5-chloro-1-(morpholin-2-ylmethyl)-1H-indol-7-yl)pyrrolo[2,1-f][1,2,4]triazin-6-yl)methyl)-5,5-dimethylimidazolidine-2,4-dione hydrochloride] was 50 to 70%.
The value for `Cc1cc(Cl)cc(-c2ncnn3cc(CN4C(=O)C5C(C4=O)C5(C)C)cc23)c1CC1CNCC(F)(F)CO1` (stereo not shown) [Example 38, 3-((4-(5-chloro-2-((6,6-difluoro-1,4-oxazepan-2-yl)methyl)-3-methylphenyl)pyrrolo[2,1-f][1,2,4]triazin-6-yl)methyl)-6,6-dimethyl-3-azabicyclo[3.1.0]hexane-2,4-dione hydrochloride] was less than 20%; that for `Cc1cc(Cl)cc(-c2ncnn3cc(CN4C(=O)C5C(C4=O)C5(C)C)cc23)c1CC1CN[C@H](C)CO1` (stereo partly drawn) [Example 40, 3-((4-(5-chloro-3-methyl-2-(((5R)-5-methylmorpholin-2-yl)methyl)phenyl)pyrrolo[2,1-f][1,2,4]triazin-6-yl)methyl)-6,6-dimethyl-3-azabicyclo[3.1.0]hexane-2,4-dione hydrochloride] was 50 to 70%.
The value for `Cc1cc(Cl)cc(-c2ncnn3cc(CN4C(=O)C5C(C4=O)C5(C)C)cc23)c1CC1CNCC(CF)O1` (stereo not shown) [Example 42, 3-((4-(5-chloro-2-((6-(fluoromethyl)morpholin-2-yl)methyl)-3-methylphenyl)pyrrolo[2,1-f][1,2,4]triazin-6-yl)methyl)-6,6-dimethyl-3-azabicyclo[3.1.0]hexane-2,4-dione hydrochloride] was 50 to 70%; that for `CC1(C)C2C(=O)N(Cc3cc4c(-c5cc(C(=O)O)cc6ccn(C[C@@H]7CNCCO7)c56)ncnn4c3)C(=O)C21` (stereo partly drawn) [Example 47, 7-(6-((6,6-dimethyl-2,4-dioxo-3-azabicyclo[3.1.0]hexan-3-yl)methyl)pyrrolo[2,1-f][1,2,4]triazin-4-yl)-1-(((S)-morpholin-2-yl)methyl)-1H-indole-5-carboxylic acid hydrochloride] was less than 20%; that for `Cc1cc(Cl)cc(-c2ncnn3cc(CN4C(=O)C5C(C4=O)C5(C)C)cc23)c1OC[C@H]1CNCCO1` (stereo partly drawn) [Example 52, 3-((4-(5-chloro-3-methyl-2-(((R)-morpholin-2-yl)methoxy)phenyl)pyrrolo[2,1-f][1,2,4]triazin-6-yl)methyl)-6,6-dimethyl-3-azabicyclo[3.1.0]hexane-2,4-dione hydrochloride] was 20 to 49%.
As to `Cc1cc(Cl)cc(-c2ncnn3cc(CN4C(=O)C5C(C4=O)C5(C)C)cc23)c1OC[C@@H]1CCCNC1` (stereo partly drawn) [Example 53, 3-((4-(5-chloro-3-methyl-2-(((R)-piperidin-3-yl)methoxy)phenyl)pyrrolo[2,1-f][1,2,4]triazin-6-yl)methyl)-6,6-dimethyl-3-azabicyclo[3.1.0]hexane-2,4-dione hydrochloride], the inhibition at 1 µM is 20 to 49%.
The value for `CC1(C)C2C(=O)N(Cc3cc4c(-c5cc(Cl)cc6c5N(C5CCNCC5)CCC6)ncnn4c3)C(=O)C21` (stereo not shown) [Example 54, 3-((4-(6-chloro-1-(piperidin-4-yl)-1,2,3,4-tetrahydroquinolin-8-yl)pyrrolo[2,1-f][1,2,4]triazin-6-yl)methyl)-6,6-dimethyl-3-azabicyclo[3.1.0]hexane-2,4-dione hydrochloride] was more than 70%.
`O=c1ccn(CC(F)(F)F)c(=O)n1Cc1cc2c(-c3cc(Cl)cc4c3N(C3CCNC3)CCC4)ncnn2c1` (stereo not shown) [Example 64, 3-((4-(6-chloro-1-(pyrrolidin-3-yl)-1,2,3,4-tetrahydroquinolin-8-yl)pyrrolo[2,1-f][1,2,4]triazin-6-yl)methyl)-1-(2,2,2-trifluoroethyl)pyrimidine-2,4(1H,3H)-dione hydrochloride] registered an inhibition at 1 µM of more than 70%.
The value for `CC1(C)C2C(=O)N(Cc3cc4c(-c5cc(Cl)cc6c5N(C[C@@H]5CNCCO5)CCC6)ncnn4c3)C(=O)C21` (stereo partly drawn) [Example 65, 3-((4-(6-chloro-1-(((S)-morpholin-2-yl)methyl)-1,2,3,4-tetrahydroquinolin-8-yl)pyrrolo[2,1-f][1,2,4]triazin-6-yl)methyl)-6,6-dimethyl-3-azabicyclo[3.1.0]hexane-2,4-dione hydrochloride] was 20 to 49%; that for `CC1(C)C2C(=O)N(Cc3cc4c(-c5cc(Cl)cc6c5N(C5CNC5)CCC6)ncnn4c3)C(=O)C21` (stereo not shown) [Example 69, 3-((4-(1-(azetidin-3-yl)-6-chloro-1,2,3,4-tetrahydroquinolin-8-yl)pyrrolo[2,1-f][1,2,4]triazin-6-yl)methyl)-6,6-dimethyl-3-azabicyclo[3.1.0]hexane-2,4-dione hydrochloride] was more than 70%; that for `Cc1cc(Cl)cc(-c2ncnn3cc(CN4C(=O)C5C(C4=O)C5(C)C)cc23)c1CC1CNC2(CC2)CO1` (stereo not shown) [Example 71, 3-((4-(2-((7-oxa-4-azaspiro[2.5]octan-6-yl)methyl)-5-chloro-3-methylphenyl)pyrrolo[2,1-f][1,2,4]triazin-6-yl)methyl)-6,6-dimethyl-3-azabicyclo[3.1.0]hexane-2,4-dione 2,2,2-trifluoroacetate] was 20 to 49%.
The value for `Cc1cc(Cl)cc(-c2ncnn3cc(CN4C(=O)C5C(C4=O)C5(C)C)cc23)c1CC1(C)CNCC(C)(C)O1` (stereo not shown) [Example 72, 3-((4-(5-chloro-3-methyl-2-((2,6,6-trimethylmorpholin-2-yl)methyl)phenyl)pyrrolo[2,1-f][1,2,4]triazin-6-yl)methyl)-6,6-dimethyl-3-azabicyclo[3.1.0]hexane-2,4-dione hydrochloride] was more than 70%; that for `Cc1cc(Cl)cc(-c2ncnn3cc(CN4C(=O)C5C(C4=O)C5(C)C)cc23)c1NCC1CCNCC1` (stereo not shown) [Example 73, 3-((4-(5-chloro-3-methyl-2-((piperidin-4-ylmethyl)amino)phenyl)pyrrolo[2,1-f][1,2,4]triazin-6-yl)methyl)-6,6-dimethyl-3-azabicyclo[3.1.0]hexane-2,4-dione dihydrochloride] was more than 70%.
The value for `Cc1cc(Cl)cc(-c2ncnn3cc(CN4C(=O)C5C(C4=O)C5(C)C)cc23)c1NCC1CCCNC1` (stereo not shown) [Example 79, 3-((4-(5-chloro-3-methyl-2-((piperidin-3-ylmethyl)amino)phenyl)pyrrolo[2,1-f][1,2,4]triazin-6-yl)methyl)-6,6-dimethyl-3-azabicyclo[3.1.0]hexane-2,4-dione dihydrochloride] was 50 to 70%; that for `Cc1cc(Cl)cc(-c2ncnn3cc(CN4C(=O)C5C(C4=O)C5(C)C)cc23)c1NC[C@@H]1CNCCO1` (stereo partly drawn) [Example 81, 3-((4-(5-chloro-3-methyl-2-((((S)-morpholin-2-yl)methyl)amino)phenyl)pyrrolo[2,1-f][1,2,4]triazin-6-yl)methyl)-6,6-dimethyl-3-azabicyclo[3.1.0]hexane-2,4-dione dihydrochloride] was 20 to 49%; that for `Cc1cc(Cl)cc(-c2ncnn3cc(CN4C(=O)C5C(C4=O)C5(C)C)cc23)c1C1=CCNCC1` (stereo not shown) [Example 84, 3-((4-(5-chloro-3-methyl-2-(1,2,3,6-tetrahydropyridin-4-yl)phenyl)pyrrolo[2,1-f][1,2,4]triazin-6-yl)methyl)-6,6-dimethyl-3-azabicyclo[3.1.0]hexane-2,4-dione hydrochloride] was less than 20%.
Compound `CC1(C)C2C(=O)N(Cc3cc4c(-c5cc(Cl)ccc5N5CCNCC5)ncnn4c3)C(=O)C21` (stereo not shown) [Example 85, 3-((4-(5-chloro-2-(piperazin-1-yl)phenyl)pyrrolo[2,1-f][1,2,4]triazin-6-yl)methyl)-6,6-dimethyl-3-azabicyclo[3.1.0]hexane-2,4-dione hydrochloride] had an inhibition at 1 µM of less than 20%.
The value for `CC1(C)C2C(=O)N(Cc3cc4c(-c5cc(Cl)ccc5N5CC[C@H](N)C5)ncnn4c3)C(=O)C21` (stereo partly drawn) [Example 86, 3-((4-(2-((S)-3-aminopyrrolidin-1-yl)-5-chlorophenyl)pyrrolo[2,1-f][1,2,4]triazin-6-yl)methyl)-6,6-dimethyl-3-azabicyclo[3.1.0]hexane-2,4-dione hydrochloride] was 20 to 49%.
